Laboratory results taken from patent US3950525A, “Relaxation of smooth muscle in a mammal” (Pfizer Inc., priority 1975, dated 1976).
Counter-ions that a name gives are not always drawn. Like-named read-outs stand apart in the source and are kept apart here.

Legend:
[1] = system: histamine aerosol induced bronchoconstriction; experiment: Bronchodilator Activity (protection of conscious guinea pigs against histamine aerosol); type: in vivo; settings: for inhibition in vivo at 60 mg/kg: Cavia porcellus, 1 h, read-out: % Protection
Method: Subsequent to this administration, each animal is challenged with histamine aerosol. […] Immediately after the container is subjected to the histamine spray the animal is placed within it. At the end of one minute of exposure, the respiratory status, which is a reflection of bronchoconstriction, is evaluated. Evaluation levels are designated and scored as normal breathing (0), slight deepened breathing (1), labored breathing (2), severely labored breathing and […] (3) and unconsciousness (4). Each group of animals contains 8 to 10 individual and a control group containing the same approximate number is used. […] The dose, which is given orally, is 60 mg./kg. and the animals are challenged with histamine 60 minutes later.

[2] = system: collagen induced platelet aggregation; experiment: In Vivo Inhibition of Platelet Aggregation (collagen induced aggregation in plasma of dosed dogs); parameters: species or system mongrel dogs; settings: for Inhibition to Collagen, High: high collagen (1:20 dilution); for Inhibition to Collagen, Low: low collagen (1:40-50 dilution)
Method: The capacity of the compounds of the present invention to inhibit platelet aggregation in a modified in vivo test is measured by the following procedure: Unanesthetized fasted adult mongrel dogs of either sex are dosed orally (P.O.) or intravenously (I.V.) with the particular test compound. Blood samples are taken at hourly intervals and placed in plastic centrifuge tubes containing 0.1 volume 3% sodium citrate. Platelet-rich plasma is separated by centrifugation at 100 G for 10 minutes at 20° C. and treated with a collagen suspension in saline. The effect of two different levels of collagen concentration are examined; the first is a 1:20 dilution, i.e. 1 ml. of collagen suspension per 20 ml. of platelet-rich plasma (high dose), and the second, a 1:40-50 dilution (low dose). Changes in optical density are then followed with a Spectronic 20 colorimeter attached to a Houston Instrument TY Recorder. Platelet aggregation is indicated by a decrease in optical density. […] Measurements are carried out on the hourly samples, allowing for the determination of a duration of the initial effect.

[3] = system: collagen induced platelet aggregation; experiment: In Vitro Inhibition of Platelet Aggregation (collagen induced, rabbit platelet-rich plasma); type: cell-based; settings: Oryctolagus cuniculus, 10 min; for inhibition at 60 µM: 6 × 10^^-5 mol./l.; for inhibition at 6 µM: 6 × 10^^-6 mol./l.; for inhibition at 600 µM: 6 × 10^^-4 mol./l.
Method: The ability of the compounds of the present invention to inhibit platelet aggregation in vitro is measured according to the method of Born, et al., J. Physiol., 168, 178 (1963) and comprises the following procedure: Anesthetized male rabbits are bled from a carotid artery into plastic centrifuge tubes containing 0.1 volume 3% sodium citrate. Platelet-rich plasma is separated by centrifugation at 100 G for 10 minutes at 20° C. […] After 10 minutes of incubation with the platelet-rich plasma at room temperature, collagen, a protein known to cause platelet aggregation, is added (0.27 ml. collagen/4 ml. plasma) and changes in the optical density are followed with a Spectronic 20 colorimeter attached to a Houston Instrument TY Recorder. Platelet aggregation is indicated by a decrease in optical density. The relative potency of the compounds of the present invention are thus rated on their ability to inhibit (percent) collagen induced platelet aggregation.

[4] = 60 mg./kg. oral, histamine challenge 60 minutes later

Structure (SMILES): CCc1c(-c2cccc(NC(C)=O)c2)ncnc1N(CC)CC
- inhibition in vivo at 60 mg/kg [1, 4]: 35%

Structure (SMILES): CCN(CC)c1ncnc(-c2cccc(NC(C)=O)c2)c1C
- inhibition in vivo at 60 mg/kg [1, 4]: 43%

Structure (SMILES): CCCc1c(-c2cccc(NC(C)=O)c2)ncnc1N(CC)CC
- inhibition in vivo at 60 mg/kg ([1]; po): 29%

Structure (SMILES): CCc1c(-c2cccc(NC(C)=O)c2)ncnc1N(C)C
- inhibition in vivo at 60 mg/kg [1, 4]: 10%

Structure (SMILES): CCCN(CCC)c1ncnc(-c2cccc(NC(C)=O)c2)c1C
- inhibition in vivo at 60 mg/kg [1, 4]: 17%

Structure (SMILES): CCN(CC)c1cc(-c2cccc(NC(=O)C(C)C)c2)ncn1 [4-diethylamino-6-(m-isobutrylaminophenyl)pyrimidine]
- inhibition in vivo at 60 mg/kg ([1]; po): 22%

Structure (SMILES): CCN(CC)c1cc(-c2ccco2)ncn1 [Ar=2-furyl; R1=C2H5; R2=C2H5; R3=H, 4-Diethylamino-6-(2-furyl)pyrimidine hydrochloride]
- inhibition in vivo at 60 mg/kg [1, 4]: 15%

Structure (SMILES): CCc1c(-c2ccc3ccccc3c2)ncnc1N(CC)CC [Ar=2-naphthyl; R1=C2H5; R2=C2H5; R3=C2H5, 4-Diethylamino-5-ethyl-6-(2-naphthyl)pyrimidine hydrochloride]
- inhibition in vivo at 60 mg/kg ([1]; po): 47%

Structure (SMILES): CCN(CC)c1cc(-c2ccc(NC(C)=O)cc2)ncn1 [Ar=4-CH3CONHC6H4; R1=C2H5; R2=C2H5; R3=H, 4-diethylamino-6-(p-acetylaminophenyl)pyrimidine]
- inhibition in vivo at 60 mg/kg ([1]; po): 56%

Structure (SMILES): CCN(CC)c1cc(-c2ccc(OC)cc2)ncn1 [Ar=4-CH3OC6H4; R1=C2H5; R2=C2H5; R3=H, 4-diethylamino-6-(p-methoxyphenyl)pyrimidine]
- Inhibition to Collagen, High ([2]; 10 mg./kg. I.V.): None (none (0-15%))
- Inhibition to Collagen, Low ([2]; 10 mg./kg. I.V.): None (none (0-15%))
- Inhibition to Collagen, High ([2]; 40 mg./kg. P.O.): Partial (partial (15-95%))
- Duration ([2]; 40 mg./kg. P.O., line with high collagen result): 1 h
- Duration ([2]; 40 mg./kg. P.O., line with low collagen result): 4 h
- Inhibition to Collagen, Low ([2]; 40 mg./kg. P.O.): Complete (complete (95-100%))
- inhibition at 60 µM [3]: 86%
- inhibition at 6 µM [3]: 42%

Structure (SMILES): CCc1c(-c2ccccc2)ncnc1N(CC)CC [Ar=C6H5; R1=C2H5; R2=C2H5; R3=C2H5, 4-Diethylamino-5-ethyl-6-phenylpyrimidine Hydrochloride]
- inhibition at 6 µM [3]: 48%

Structure (SMILES): CCN(CC)c1ncnc(-c2ccccc2)c1C [Ar=C6H5; R1=C2H5; R2=C2H5; R3=CH3, 4-diethylamino-5-methyl-6-phenylpyrimidine]
- inhibition at 6 µM [3]: 80%

Structure (SMILES): CCN(CC)c1ncnc(-c2ccccc2)c1C(C)C [Ar=C6H5; R1=C2H5; R2=C2H5; R3=i-C3H7]
- inhibition at 6 µM [3]: 63%

Structure (SMILES): CCCc1c(-c2ccccc2)ncnc1N(CC)CC [Ar=C6H5; R1=C2H5; R2=C2H5; R3=n-C3H7]
- inhibition at 6 µM [3]: 55%

Structure (SMILES): CCNc1cc(-c2ccccc2)ncn1 [Ar=C6H5; R1=C2H5; R2=H; R3=H, 4-ethylamino-6-phenylpyrimidine]
- inhibition at 600 µM [3]: 99%
- inhibition at 60 µM [3]: 91%
- inhibition at 6 µM [3]: 99%

Structure (SMILES): CCN(CC(F)(F)F)c1cc(-c2ccccc2)ncn1 [Ar=C6H5; R1=CF3CH2; R2=C2H5; R3=H, 4-[Ethyl(2,2,2-trifluoroethyl)amino]-6-phenylpyrimidine hydrochloride]
- inhibition at 600 µM [3]: 65%
- inhibition at 60 µM [3]: 39%
- inhibition at 6 µM [3]: 34%

Structure (SMILES): Cl.FC(F)(F)CNc1cc(-c2ccccc2)ncn1 [Ar=C6H5; R1=CF3CH2; R2=H; R3=H, 4-(2,2,2-Trifluoroethylamino)-6-phenylpyrimidine hydrochloride]
- Duration ([2]; 10 mg./kg. I.V.): 3 h
- Inhibition to Collagen, High ([2]; 10 mg./kg. I.V.): Complete (complete (95-100%))
- Duration ([2]; 25 mg./kg. P.O.): 3 h
- Inhibition to Collagen, High ([2]; 25 mg./kg. P.O.): Partial (partial (15-95%))
- Duration ([2]; 35 mg./kg. P.O.): 4 h
- Inhibition to Collagen, High ([2]; 35 mg./kg. P.O.): Complete (complete (95-100%))
- Inhibition to Collagen, Low ([2]; 35 mg./kg. P.O.): Complete (complete (95-100%))
- inhibition at 60 µM [3]: 83%
- inhibition at 6 µM [3]: 32%

Structure (SMILES): CCc1c(-c2ccccc2)ncnc1N(C)C [Ar=C6H5; R1=CH3; R2=CH3; R3=C2H5]
- inhibition at 6 µM [3]: 50%

Structure (SMILES): CN(C)c1cc(-c2ccccc2)ncn1 [Ar=C6H5; R1=CH3; R2=CH3; R3=H]
- inhibition at 600 µM [3]: 99%
- inhibition at 60 µM [3]: 55%

Structure (SMILES): CCCc1c(-c2ccccc2)ncnc1N(C)C [Ar=C6H5; R1=CH3; R2=CH3; R3=n-C3H7]
- inhibition at 6 µM [3]: 40%

Structure (SMILES): CNc1cc(-c2ccccc2)ncn1 [Ar=C6H5; R1=CH3; R2=H; R3=H]
- inhibition at 600 µM [3]: 99%
- inhibition at 60 µM [3]: 66%

Structure (SMILES): Nc1cc(-c2ccccc2)ncn1 [Ar=C6H5; R1=H; R2=H; R3=H, 4-amino-6-phenylpyrimidine]
- inhibition at 600 µM [3]: 75%
- inhibition at 60 µM [3]: 65%

Structure (SMILES): CCN(CCO)c1cc(-c2ccccc2)ncn1.Cl [Ar=C6H5; R1=HO(CH2)2; R2=C2H5; R3=H, 4-[Ethyl(2-hydroxyethyl)amino]-6-phenylpyrimidine hydrochloride]
- Duration ([2]; 10 mg./kg. I.V.): 3 h
- Inhibition to Collagen, High ([2]; 10 mg./kg. I.V.): Complete (complete (95-100%))
- Inhibition to Collagen, Low ([2]; 10 mg./kg. I.V.): Complete (complete (95-100%))
- Duration ([2]; 25 mg./kg. P.O.): 2 h
- Inhibition to Collagen, High ([2]; 25 mg./kg. P.O.): Complete (complete (95-100%))
- Inhibition to Collagen, Low ([2]; 25 mg./kg. P.O.): Complete (complete (95-100%))
- inhibition at 600 µM [3]: 99%
- inhibition at 60 µM [3]: 97%
- inhibition at 6 µM [3]: 35%

Structure (SMILES): CN(CCO)c1cc(-c2ccccc2)ncn1 [Ar=C6H5; R1=HO(CH2)2; R2=CH3; R3=H, 4-[Methyl(2-hydroxyethyl)amino]-6-phenylpyrimidine hydrochloride]
- inhibition at 600 µM [3]: 99%
- inhibition at 60 µM [3]: 99%
- inhibition at 6 µM [3]: 28%

Structure (SMILES): OCCN(CCO)c1cc(-c2ccccc2)ncn1 [Ar=C6H5; R1=HO(CH2)2; R2=HO(CH2)2; R3=H, 4-[Bis(2-hydroxyethyl)amino]-6-phenylpyrimidine hydrochloride]
- inhibition at 600 µM [3]: 84%
- inhibition at 60 µM [3]: 27%

Structure (SMILES): CC(C)Nc1cc(-c2ccccc2)ncn1 [Ar=C6H5; R1=i-C3H7; R2=H; R3=H]
- inhibition at 60 µM [3]: 88%
- inhibition at 6 µM [3]: 29%

Structure (SMILES): CC(C)CNc1cc(-c2ccccc2)ncn1 [Ar=C6H5; R1=i-C4H9; R2=H; R3=H]
- inhibition at 60 µM [3]: 82%
- inhibition at 6 µM [3]: 17%

Structure (SMILES): CC(C)CN(CC(C)C)c1cc(-c2ccccc2)ncn1 [Ar=C6H5; R1=i-C4H9; R2=i-C4H9; R3=H]
- inhibition at 600 µM [3]: 35%
- inhibition at 60 µM [3]: 24%
- inhibition at 6 µM [3]: 10%

Structure (SMILES): CCCN(CC)c1cc(-c2ccccc2)ncn1 [Ar=C6H5; R1=n-C3H7; R2=C2H5; R3=H, 4-(ethyl-n-propylamino)-6-phenylpyrimidine]
- inhibition at 600 µM [3]: 99%
- inhibition at 60 µM [3]: 86%
- inhibition at 6 µM [3]: 79%

Structure (SMILES): CCCN(C)c1cc(-c2ccccc2)ncn1 [Ar=C6H5; R1=n-C3H7; R2=CH3; R3=H]
- inhibition at 60 µM [3]: 47%
- inhibition at 6 µM [3]: 39%

Structure (SMILES): CCCN(CCC)c1ncnc(-c2ccccc2)c1CC [Ar=C6H5; R1=n-C3H7; R2=n-C3H7; R3=C2H5]
- inhibition at 6 µM [3]: 5%

Structure (SMILES): CCCN(CCC)c1ncnc(-c2ccccc2)c1C [Ar=C6H5; R1=n-C3H7; R2=n-C3H7; R3=CH3]
- inhibition at 6 µM [3]: 11%

Structure (SMILES): CCCN(CCC)c1cc(-c2ccccc2)ncn1 [Ar=C6H5; R1=n-C3H7; R2=n-C3H7; R3=H]
- inhibition at 600 µM [3]: 83%
- inhibition at 60 µM [3]: 49%
- inhibition at 6 µM [3]: 41%

Structure (SMILES): CCCCNc1cc(-c2ccccc2)ncn1 [Ar=C6H5; R1=n-C4H9; R2=H; R3=H]
- inhibition at 60 µM [3]: 42%
- inhibition at 6 µM [3]: 30%

Structure (SMILES): CCCCN(CCCC)c1cc(-c2ccccc2)ncn1 [Ar=C6H5; R1=n-C4H9; R2=n-C4H9; R3=H]
- inhibition at 60 µM [3]: 56%
- inhibition at 6 µM [3]: 35%

Structure (SMILES): CCc1c(O)ncnc1-c1ccccc1 [R3=C2H5, 4-hydroxy-5-ethyl-6-phenylpyrimidine]
- inhibition in vivo at 60 mg/kg [1, 4]: 62%
- activity as a bronchodilator (in words) ([1]; guinea pig, in vivo): unexpected, outstanding activity as a bronchodilator

Structure (SMILES): Cc1c(O)ncnc1-c1ccccc1 [R3=CH3]
- inhibition in vivo at 60 mg/kg [1, 4]: 22%

Structure (SMILES): Oc1cc(-c2ccccc2)ncn1 [R3=H, 4-Hydroxy-6-phenylpyrimidine]
- inhibition in vivo at 60 mg/kg ([1]; po): 12%

Structure (SMILES): CC(C)c1c(O)ncnc1-c1ccccc1 [R3=i-C3H7]
- inhibition in vivo at 60 mg/kg ([1]; po): 16%

Structure (SMILES): CCCc1c(O)ncnc1-c1ccccc1 [R3=n-C3H7]
- inhibition in vivo at 60 mg/kg [1, 4]: 25%
